From PMC7075946 (Frontiers in Immunology, 2020) come the findings set out here.

For test [1], the system named is A/Victoria/210/2009 (H3N2). As to the kind of experiment: Splenocyte restimulation, influenza-specific T cell responses (flow cytometry, MSD). Format: in vivo, BALB/c mice. The note with it: for influenza-specific T cell response (cytokine production of restimulated splenocytes): 5 days post-secondary vaccination, A/Vic restimulation, vs A/Vic alone. A general note: A flow cytometer gives signals particle by particle.

A further test deals with T1, mouse TLR7 (Mus musculus, UniProt P58681).
T1 sequence (P58681 27-1050): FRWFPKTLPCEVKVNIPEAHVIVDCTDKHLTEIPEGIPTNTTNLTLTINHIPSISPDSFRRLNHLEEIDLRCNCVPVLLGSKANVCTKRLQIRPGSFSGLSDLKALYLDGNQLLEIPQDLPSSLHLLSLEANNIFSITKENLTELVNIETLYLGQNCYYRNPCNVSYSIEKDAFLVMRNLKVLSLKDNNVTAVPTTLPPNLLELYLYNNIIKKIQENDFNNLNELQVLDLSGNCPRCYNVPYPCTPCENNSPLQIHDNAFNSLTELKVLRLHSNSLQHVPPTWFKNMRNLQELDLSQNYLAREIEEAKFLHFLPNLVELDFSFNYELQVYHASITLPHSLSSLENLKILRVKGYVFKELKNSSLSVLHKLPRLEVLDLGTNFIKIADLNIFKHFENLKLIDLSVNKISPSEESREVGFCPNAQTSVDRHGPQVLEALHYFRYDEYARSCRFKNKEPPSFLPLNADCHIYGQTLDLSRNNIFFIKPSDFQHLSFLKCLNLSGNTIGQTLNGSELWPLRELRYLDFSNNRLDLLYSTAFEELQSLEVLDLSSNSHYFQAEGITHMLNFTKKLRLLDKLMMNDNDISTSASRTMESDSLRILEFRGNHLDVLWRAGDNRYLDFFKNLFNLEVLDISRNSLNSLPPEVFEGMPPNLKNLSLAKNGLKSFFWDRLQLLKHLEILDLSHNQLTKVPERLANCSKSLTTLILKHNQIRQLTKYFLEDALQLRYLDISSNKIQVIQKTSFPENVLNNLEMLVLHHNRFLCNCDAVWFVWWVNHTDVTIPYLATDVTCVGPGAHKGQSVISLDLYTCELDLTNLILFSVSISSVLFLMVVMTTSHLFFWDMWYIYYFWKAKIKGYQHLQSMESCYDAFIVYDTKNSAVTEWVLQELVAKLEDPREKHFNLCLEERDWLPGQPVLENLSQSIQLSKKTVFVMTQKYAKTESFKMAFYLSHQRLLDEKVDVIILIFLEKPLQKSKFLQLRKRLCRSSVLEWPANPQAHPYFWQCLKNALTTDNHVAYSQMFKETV
The experiment in a line: cell-based.

The target in another test is T2, human TLR7 (Homo sapiens, UniProt Q9NYK1).
T2 sequence (Q9NYK1 27-1049): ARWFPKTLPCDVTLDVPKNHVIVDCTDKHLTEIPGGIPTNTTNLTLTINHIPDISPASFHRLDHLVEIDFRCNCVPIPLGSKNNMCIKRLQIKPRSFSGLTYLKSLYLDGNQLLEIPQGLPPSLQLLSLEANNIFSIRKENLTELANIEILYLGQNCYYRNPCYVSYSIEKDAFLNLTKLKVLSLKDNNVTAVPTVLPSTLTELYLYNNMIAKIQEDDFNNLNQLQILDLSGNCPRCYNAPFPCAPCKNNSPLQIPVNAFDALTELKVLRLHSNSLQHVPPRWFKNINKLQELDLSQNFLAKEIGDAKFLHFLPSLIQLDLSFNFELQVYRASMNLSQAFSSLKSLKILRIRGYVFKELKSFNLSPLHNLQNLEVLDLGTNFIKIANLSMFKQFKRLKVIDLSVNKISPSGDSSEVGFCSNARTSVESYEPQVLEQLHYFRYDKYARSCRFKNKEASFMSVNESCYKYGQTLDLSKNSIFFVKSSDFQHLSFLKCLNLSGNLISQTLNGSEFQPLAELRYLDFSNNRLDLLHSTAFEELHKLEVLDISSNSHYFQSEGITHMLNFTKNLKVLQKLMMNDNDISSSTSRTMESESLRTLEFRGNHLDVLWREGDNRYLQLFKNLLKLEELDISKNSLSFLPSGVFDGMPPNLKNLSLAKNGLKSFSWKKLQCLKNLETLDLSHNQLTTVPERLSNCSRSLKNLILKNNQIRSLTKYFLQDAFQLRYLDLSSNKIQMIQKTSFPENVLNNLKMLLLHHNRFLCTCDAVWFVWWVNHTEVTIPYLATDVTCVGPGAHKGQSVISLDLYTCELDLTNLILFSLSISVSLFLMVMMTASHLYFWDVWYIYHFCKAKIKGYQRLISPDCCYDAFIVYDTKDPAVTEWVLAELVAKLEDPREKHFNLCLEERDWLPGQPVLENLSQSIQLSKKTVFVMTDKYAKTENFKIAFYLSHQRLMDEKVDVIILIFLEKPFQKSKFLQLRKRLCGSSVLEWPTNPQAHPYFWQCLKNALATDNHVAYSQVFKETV
As to the kind of experiment: cell-based.

In another test the test system is human PBMCs. As to the kind of experiment: Human PBMC secreted cytokines (Luminex). Format: cell-based. The note with it: for pro-inflammatory and Th1/Th17 biasing cytokines, concentrations and frequencies: secreted and intracellular cytokine data. How it is done:
Human blood was obtained from healthy adult donors through a University of Montana Institutional Review Board (IRB)-approved protocol. PBMCs were separated from whole blood via density gradient separation using Histopaque 1,077 (Sigma). For PBMC-based assays, cells were resuspended at the desired cell concentration in complete media (RPMI1640+10% FBS+antibiotics). Cells were treated with the indicated compound concentrations and stimulated for 6–24 h depending on the assay as indicated in the figure legends and assays outlined below.
For Luminex assays, supernatants were harvested from treated human PBMCs following 18–24 h of incubation. Supernatants were analyzed using Luminex multiplex panel for analytes IL-1β, IL-12p70, IL-23, IL-6, TNFα, IFNα, and IL-4 (R&D Systems) per the manufacturer's instructions. Multiplex analysis was performed using a Luminex 200 instrument (Luminex Corporation) and analyzed with StarStation2.3 software.
Figure 6 Lipidated imidazoquinolines elicit a Th1/Th17-inducing innate cytokine profile from human PBMCs. PBMCs from 6 healthy, adult blood donors were stimulated with indicated concentrations of TLR7/8 agonists with and without a TLR4 agonist. Secreted cytokines were measured after 24 h via Luminex assay. Supernanant concentrations of (A) IL-12p70, (B) IL-23, (C) IL-1β, and (D) IL-4 were determined. […] Note that for each cytokine measured, the y-axis scale used for the left and right plots is identical for ease of comparison.

“Also recorded” adds a separate entry of the source.

For the molecule `CCCCc1nc2c(N)nc3ccccc3c2n1CCO` [UM-3001], in test [1], the “influenza-specific T cell response (cytokine production of restimulated splenocytes)” value (shortened to “influenza-specific T cell response”) is “did not exhibit any significantly increased cytokine production”. For the same molecule, the results for the EC50 on mouse TLR7 and on human TLR7 were 0.48 µM and 1.12 µM, respectively. For the same molecule, the IFNα secretion entry in the test on human PBMCs (24 h) was “not”. The IL-12p70 production result in the test on human PBMCs (with CRX-601 added at a 1:10 ratio, 24 h) is listed as “boosted IL-12p70 production”.

On to `CCCCCCCCCCCCCCCC(=O)OC[C@H](COCCOCCOCCOP(=O)(O)OCCn1c(CCCC)nc2c(N)nc3ccccc3c21)OC(=O)CCCCCCCCCCCCCCC` [UM-3003], for which the “influenza-specific T cell response” value in test [1] is given as “primarily a Th1 influenza-specific response”. The “IL-17 response compared to A/Vic antigen alone” value in test [1] (challenge study, 10 μg/mouse alone, 5dp2) is given as “no longer elicited a significantly higher IL-17 response”. It took 12.6 µM to reach a half-maximal effect at mouse TLR7 (EC50). Also, the EC50 (commonly the concentration needed to bring the measured effect to its halfway point) at human TLR7 is 34.7 µM. Besides, the IFNα secretion result in the test with human PBMCs (24 h) is given as “secreted; also recorded: most potent inducer of IFNα”. Besides, in the test on human PBMCs (compound alone, 24 h), the IL-1β production entry is “low concentrations”, the IL-12p70 production entry is reported as “low levels” and the IL-23 production entry is reported as “low concentrations”. Besides, in the test on human PBMCs, the “pro-inflammatory and Th1/Th17 biasing cytokines, concentrations and frequencies” value is “low concentrations and low frequencies”.

In the case of `CCCCCCCCCCCCCCCC(=O)OC[C@H](COCCOCCOCCOCCOCCOCCOP(=O)(O)OCCn1c(CCCC)nc2c(N)nc3ccccc3c21)OC(=O)CCCCCCCCCCCCCCC` [UM-3004], the “influenza-specific T cell response” value in test [1] is “primarily a Th1 influenza-specific response”. Moreover, the values for the EC50 at mouse TLR7 and on human TLR7 were 0.86 µM and 60.5 µM, respectively. Also, the IFNα secretion entry with human PBMCs (24 h) was “secreted”.

Turning to `CCCCCCCC/C=C\CCCCCCCC(=O)OC[C@H](COP(=O)(O)OCCc1ccc2c(c1)nc(N)c1nc(CCCC)n(CCO)c12)OC(=O)CCCCCCC/C=C\CCCCCCCC` [UM-3005], the “influenza-specific T cell response” value in test [1] is given as “primarily a Th1 influenza-specific response”. In addition, the “frequencies of CD8 IFNγ+ cells” value in test [1] (high dose 10 μg/mouse, with or without a TLR4 agonist, 5dp2) is on record as “significantly increased”. For the same molecule, the EC50 at mouse TLR7 turned out to be 1.14 µM; at human TLR7, 499 µM. The IFNα secretion result with human PBMCs (24 h) is given as “secreted”. Moreover, the “pro-inflammatory and Th1/Th17 biasing cytokines, concentrations and frequencies” value with human PBMCs was “highest concentrations and frequencies”.
